ChEMBL document CHEMBL5291721, “A preclinical secondary pharmacology resource illuminates target-adverse drug reaction associations of marketed drugs” (Nat Commun, 2023)

Legend:
Adenosine receptor A3 = molecular target: T1, Adenosine receptor A3 (Homo sapiens, UniProt P0DMS8)
T1 sequence (P0DMS8 whole entry): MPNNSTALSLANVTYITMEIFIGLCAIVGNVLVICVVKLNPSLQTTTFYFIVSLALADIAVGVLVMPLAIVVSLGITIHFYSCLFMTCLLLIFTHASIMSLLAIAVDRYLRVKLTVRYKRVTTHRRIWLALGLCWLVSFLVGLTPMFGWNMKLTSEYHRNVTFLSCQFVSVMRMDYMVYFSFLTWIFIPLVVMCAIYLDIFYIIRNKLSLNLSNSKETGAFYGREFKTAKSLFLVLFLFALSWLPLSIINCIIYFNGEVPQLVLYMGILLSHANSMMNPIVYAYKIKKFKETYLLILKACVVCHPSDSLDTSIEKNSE

[1] = molecular target: Beta-2 adrenergic receptor (Homo sapiens, UniProt P07550); format: functional, cell-based
Sequence of Beta-2 adrenergic receptor (P07550 whole entry): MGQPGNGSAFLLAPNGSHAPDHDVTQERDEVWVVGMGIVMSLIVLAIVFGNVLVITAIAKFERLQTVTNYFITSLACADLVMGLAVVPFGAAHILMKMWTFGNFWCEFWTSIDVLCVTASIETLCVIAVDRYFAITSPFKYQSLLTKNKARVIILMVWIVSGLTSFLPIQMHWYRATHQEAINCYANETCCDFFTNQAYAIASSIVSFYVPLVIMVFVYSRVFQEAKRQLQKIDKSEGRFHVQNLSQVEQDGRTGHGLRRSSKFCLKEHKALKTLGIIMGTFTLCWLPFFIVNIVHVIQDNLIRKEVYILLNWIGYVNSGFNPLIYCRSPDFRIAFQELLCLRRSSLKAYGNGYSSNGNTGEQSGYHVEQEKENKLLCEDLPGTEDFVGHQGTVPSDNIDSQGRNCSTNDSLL

[2] = molecular target: T2, 5-hydroxytryptamine receptor 1A (Homo sapiens, UniProt P08908); format: functional, cell-based
T2 sequence (P08908 whole entry): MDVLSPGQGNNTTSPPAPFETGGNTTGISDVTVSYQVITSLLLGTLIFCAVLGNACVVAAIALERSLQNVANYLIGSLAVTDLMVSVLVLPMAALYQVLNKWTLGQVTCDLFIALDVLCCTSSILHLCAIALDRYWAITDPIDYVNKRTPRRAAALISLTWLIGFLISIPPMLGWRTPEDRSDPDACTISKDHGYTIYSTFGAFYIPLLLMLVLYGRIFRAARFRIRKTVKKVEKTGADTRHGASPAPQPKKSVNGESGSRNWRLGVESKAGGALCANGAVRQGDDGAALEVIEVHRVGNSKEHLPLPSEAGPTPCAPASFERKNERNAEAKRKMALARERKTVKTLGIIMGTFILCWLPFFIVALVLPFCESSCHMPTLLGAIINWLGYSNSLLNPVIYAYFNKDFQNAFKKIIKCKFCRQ

[3] = molecular target: 5-hydroxytryptamine receptor 2B (Homo sapiens, UniProt P41595); format: functional, cell-based
Sequence of 5-hydroxytryptamine receptor 2B (P41595 whole entry): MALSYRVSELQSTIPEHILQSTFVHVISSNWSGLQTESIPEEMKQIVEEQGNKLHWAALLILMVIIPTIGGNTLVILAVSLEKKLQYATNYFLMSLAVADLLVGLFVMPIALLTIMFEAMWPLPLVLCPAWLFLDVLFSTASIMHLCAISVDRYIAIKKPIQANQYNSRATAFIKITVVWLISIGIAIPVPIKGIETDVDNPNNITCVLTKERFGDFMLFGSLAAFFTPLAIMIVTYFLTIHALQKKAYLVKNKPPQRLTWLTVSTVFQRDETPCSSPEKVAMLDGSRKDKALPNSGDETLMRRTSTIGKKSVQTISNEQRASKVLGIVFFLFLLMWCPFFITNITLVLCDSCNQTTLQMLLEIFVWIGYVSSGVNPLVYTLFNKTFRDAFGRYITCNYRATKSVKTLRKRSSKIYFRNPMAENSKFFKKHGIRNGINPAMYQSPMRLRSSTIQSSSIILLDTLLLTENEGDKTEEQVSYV

[4] = molecular target: 3',5'-cyclic-AMP phosphodiesterase 4D (Homo sapiens, UniProt Q08499); format: functional
Sequence of 3',5'-cyclic-AMP phosphodiesterase 4D (Q08499 whole entry): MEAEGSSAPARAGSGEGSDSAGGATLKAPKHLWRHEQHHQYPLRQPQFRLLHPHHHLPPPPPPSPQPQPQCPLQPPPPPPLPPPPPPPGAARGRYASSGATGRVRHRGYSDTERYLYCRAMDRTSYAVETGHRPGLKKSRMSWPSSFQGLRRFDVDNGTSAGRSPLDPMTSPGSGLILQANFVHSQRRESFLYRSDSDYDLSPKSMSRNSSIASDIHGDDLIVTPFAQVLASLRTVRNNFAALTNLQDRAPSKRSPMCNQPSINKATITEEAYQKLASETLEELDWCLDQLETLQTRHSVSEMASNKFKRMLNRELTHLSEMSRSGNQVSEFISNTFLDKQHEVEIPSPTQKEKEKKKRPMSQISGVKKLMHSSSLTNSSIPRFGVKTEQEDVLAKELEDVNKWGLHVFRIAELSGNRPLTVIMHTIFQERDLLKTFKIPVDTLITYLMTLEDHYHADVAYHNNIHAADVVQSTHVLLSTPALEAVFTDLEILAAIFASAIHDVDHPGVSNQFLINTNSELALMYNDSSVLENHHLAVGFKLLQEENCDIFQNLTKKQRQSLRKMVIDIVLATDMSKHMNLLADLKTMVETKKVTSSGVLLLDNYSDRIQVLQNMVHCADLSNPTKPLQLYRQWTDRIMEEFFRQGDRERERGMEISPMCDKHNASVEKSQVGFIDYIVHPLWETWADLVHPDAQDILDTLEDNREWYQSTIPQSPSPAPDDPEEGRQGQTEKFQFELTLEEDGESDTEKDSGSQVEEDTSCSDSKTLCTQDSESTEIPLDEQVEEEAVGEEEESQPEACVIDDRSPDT

[5] = molecular target: T3, Alpha-1A adrenergic receptor (Homo sapiens, UniProt P35348); format: functional, cell-based
T3 sequence (P35348 whole entry): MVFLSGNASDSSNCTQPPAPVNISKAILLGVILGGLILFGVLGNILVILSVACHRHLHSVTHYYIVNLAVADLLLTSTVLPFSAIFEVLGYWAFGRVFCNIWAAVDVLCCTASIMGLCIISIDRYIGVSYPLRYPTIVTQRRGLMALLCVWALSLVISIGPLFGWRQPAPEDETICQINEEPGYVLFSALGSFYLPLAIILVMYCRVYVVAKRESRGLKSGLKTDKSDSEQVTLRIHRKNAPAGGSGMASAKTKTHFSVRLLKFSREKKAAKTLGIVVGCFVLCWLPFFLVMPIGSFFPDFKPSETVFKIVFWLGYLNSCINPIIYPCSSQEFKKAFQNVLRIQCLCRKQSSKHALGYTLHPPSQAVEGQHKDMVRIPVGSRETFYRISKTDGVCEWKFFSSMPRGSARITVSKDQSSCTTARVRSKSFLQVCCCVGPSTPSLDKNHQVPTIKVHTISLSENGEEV

[6] = molecular target: T4, Gastrin/cholecystokinin type B receptor (Homo sapiens, UniProt P32239)
T4 sequence (P32239 whole entry): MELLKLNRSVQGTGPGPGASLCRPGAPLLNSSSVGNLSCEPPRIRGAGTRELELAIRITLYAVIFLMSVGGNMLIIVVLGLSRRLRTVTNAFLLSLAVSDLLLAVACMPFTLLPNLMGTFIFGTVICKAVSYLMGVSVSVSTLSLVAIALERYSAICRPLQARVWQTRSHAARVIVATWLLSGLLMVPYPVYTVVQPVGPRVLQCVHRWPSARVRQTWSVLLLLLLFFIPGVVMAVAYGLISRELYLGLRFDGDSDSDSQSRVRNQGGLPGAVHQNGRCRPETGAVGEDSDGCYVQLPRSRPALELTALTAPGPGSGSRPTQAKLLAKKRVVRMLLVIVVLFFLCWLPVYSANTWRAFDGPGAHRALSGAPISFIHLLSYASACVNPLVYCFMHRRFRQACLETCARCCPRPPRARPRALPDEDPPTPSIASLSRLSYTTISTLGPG

Histamine H2 receptor = Histamine H2 receptor (Homo sapiens, UniProt P25021); format: functional, cell-based
Sequence of Histamine H2 receptor (P25021 whole entry): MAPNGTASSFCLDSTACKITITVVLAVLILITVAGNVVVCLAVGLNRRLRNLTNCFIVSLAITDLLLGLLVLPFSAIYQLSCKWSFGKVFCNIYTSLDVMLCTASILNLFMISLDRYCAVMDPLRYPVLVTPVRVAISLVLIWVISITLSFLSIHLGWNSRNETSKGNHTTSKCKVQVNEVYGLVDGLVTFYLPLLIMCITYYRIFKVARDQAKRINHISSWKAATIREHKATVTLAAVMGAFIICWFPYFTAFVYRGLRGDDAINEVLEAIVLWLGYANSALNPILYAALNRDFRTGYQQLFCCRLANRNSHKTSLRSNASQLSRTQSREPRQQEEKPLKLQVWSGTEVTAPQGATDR

Thromboxane A2 receptor = molecular target: T5, Thromboxane A2 receptor (Homo sapiens, UniProt P21731)
T5 sequence (P21731 whole entry): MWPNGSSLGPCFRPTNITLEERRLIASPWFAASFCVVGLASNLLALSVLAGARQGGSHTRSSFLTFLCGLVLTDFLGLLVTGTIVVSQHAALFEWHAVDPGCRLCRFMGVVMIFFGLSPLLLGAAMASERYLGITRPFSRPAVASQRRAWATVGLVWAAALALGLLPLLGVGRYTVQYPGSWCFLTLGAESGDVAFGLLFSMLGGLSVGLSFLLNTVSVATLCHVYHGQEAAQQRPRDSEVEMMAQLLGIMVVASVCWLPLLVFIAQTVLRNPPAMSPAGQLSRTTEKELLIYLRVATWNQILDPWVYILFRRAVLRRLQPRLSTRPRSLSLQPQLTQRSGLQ
Further: assay procedure not described here.

SMILES	AC50 (Adenosine receptor A3) [µM]	AC50 [1] [µM]	AC50 [2] [µM]	AC50 [3] [µM]	AC50 [4] [µM]	AC50 [5] [µM]	AC50 [6] [µM]	AC50 (Histamine H2 receptor) [µM]	AC50 (Thromboxane A2 receptor) [µM]
CC(=N)N1CC[C@H](SC2=C(C(=O)O)N3C(=O)[C@H]([C@@H](C)O)[C@H]3C2)C1	140	> 300	> 300	> 300	> 300	> 300			
CC(/C=C1\SC(=S)N(CC(=O)O)C1=O)=C\c1ccccc1	20	> 30	> 30	> 30		25	> 30	> 30	27
O=C1CN2Cc3c(ccc(Cl)c3Cl)N=C2N1 [ANAGRELIDE]	> 30	> 30	> 30	> 10	> 30	> 30	> 30	> 10	> 30
CCc1oc2ccccc2c1C(=O)c1cc(Br)c(O)c(Br)c1 [BENZBROMARONE]	4.19	> 30	> 30	> 30		2.65	> 30	> 10	29
C=C(C)[C@@H]1CCC(C)=C[C@H]1c1c(O)cc(CCCCC)cc1O [CANNABIDIOL]		> 30	> 10	> 30	> 30	> 10			
CO/N=C(\C(=O)N[C@@H]1C(=O)N2C(C(=O)O)=C(COC(N)=O)CS[C@H]12)c1ccco1 [CEFUROXIME]	> 30	> 30	> 30	> 30	> 30	> 30	> 30	> 30	
[H]/N=C(\N/C(=N/[H])NCCCCCCNC(=N)NC(=N)Nc1ccc(Cl)cc1)Nc1ccc(Cl)cc1 [CHLORHEXIDINE]	4.1	> 30	> 30	> 30	> 10	0.6		> 10	> 30
COC(=O)[C@H](c1ccccc1Cl)N1CCc2sccc2C1 [CLOPIDOGREL]	> 30	> 30	> 30	> 30	> 30	> 30	> 30	> 30	> 30
CC1(C)O[C@@H]2C[C@H]3[C@@H]4C[C@H](F)C5=CC(=O)C=C[C@]5(C)[C@H]4[C@@H](O)C[C@]3(C)[C@]2(C(=O)CO)O1 [FLUNISOLIDE]	> 30	> 30	> 30	> 30	> 30	0.048			
CCC(=O)O[C@@H](O[P@](=O)(CCCCc1ccccc1)CC(=O)N1C[C@H](C2CCCCC2)C[C@H]1C(=O)O)C(C)C [FOSINOPRIL]		> 30	> 30	> 30	> 30	> 30		> 30	
Nc1nc(O)c2ncn(COC(CO)CO)c2n1 [GANCICLOVIR]	> 30	> 30	> 30	> 30	> 30	> 30	> 30	> 30	> 30
C[C@H]1Oc2cc(cnc2N)-c2c(nn(C)c2C#N)CN(C)C(=O)c2ccc(F)cc21 [LORLATINIB]	1.2	> 30	> 30	> 30	16	> 30			
Cc1cnc(NC(=O)C2=C(O)c3ccccc3S(=O)(=O)N2C)s1 [MELOXICAM]	> 30	> 30	> 10	> 10	> 10	> 30	> 30	> 10	> 30
CN(C)c1cc(CNCC(C)(C)C)c(O)c2c1C[C@H]1C[C@H]3[C@H](N(C)C)C(O)=C(C(N)=O)C(=O)[C@@]3(O)C(O)=C1C2=O [OMADACYCLINE]	25	> 30	> 30	> 30	> 30	> 30	> 30	> 30	
COc1ccnc(C[S+]([O-])c2nc3ccc(OC(F)F)cc3[nH]2)c1OC (configuration not stated) [PANTOPRAZOLE]		> 30	> 10	> 10	> 30	> 30	> 30	> 10	> 30
O=C1NC(=O)C(c2ccccc2)(c2ccccc2)N1 [PHENYTOIN]	> 30	> 30	> 30	> 30	> 30	> 30	> 30	> 10	> 30
CC(C)C[C@H](CN)CC(=O)O [PREGABALIN]	> 30	> 30	> 30	28	> 30		> 30	> 10	> 30
CNC(=O)c1cc(Oc2ccc(NC(=O)Nc3ccc(Cl)c(C(F)(F)F)c3)c(F)c2)ccn1 [REGORAFENIB]	2.51	> 30			> 30	> 30			
CCOc1cc(CC(=O)N[C@@H](CC(C)C)c2ccccc2N2CCCCC2)ccc1C(=O)O [REPAGLINIDE]	22	> 30	> 30	> 10	9.6	> 30			
CCCN(CCC)CCc1cccc2c1CC(=O)N2 [ROPINIROLE]	> 30	> 30	> 30	2.76	> 30	> 30	> 30	> 10	> 30
CC[C@H]1OC(=O)[C@H](C)[C@@H](O[C@H]2C[C@@](C)(OC)[C@@H](O)[C@H](C)O2)[C@H](C)[C@@H](O[C@@H]2O[C@H](C)C[C@H](N(C)C)[C@H]2O)[C@](C)(O)C[C@@H](C)/C(=N\OCOCCOC)[C@H](C)[C@@H](O)[C@]1(C)O [ROXITHROMYCIN]	> 30	> 30	> 30	> 30	> 30	> 30			
Cn1c(=O)c2[nH]cnc2n(C)c1=O [THEOPHYLLINE]		> 30	> 10	> 10		> 30	> 30	> 10	> 30
CN1CCN(CCCN2c3ccccc3Sc3ccc(S(=O)(=O)N(C)C)cc32)CC1 [THIOPROPERAZINE]		> 30		> 30	13	1		> 30	
